Test system: ILK, Akt (serine 473) in C2C12 myoblasts and embryonic heart explants
Assay: ILK localization/expression and Akt phosphorylation by immunocytochemistry and western blot
Format: cell-based
Settings: COS1 or C2C12 cells; F-actin polymerization inhibited; data not shown
Description: Immunocytochemistry on collagen gel explants. Paraformaldehyde-fixed explants were permeabilized for 10 min at room temperature with Permeabilize solution (10 mM PIPES pH 6.8; 50 mM NaCl, 0.5% Triton X-100, 300 mM sucrose, 3 mM MgCl2) and rinsed with PBS twice for 5 min each at room temperature. After a series of blocking and rinsing steps, detection antibodies were used and explants rinsed and incubated with equilibration buffer (Anti-Fade kit) for 10 min at room temperature. Explants were scooped to a glass microscope slide, covered and examined by fluorescein microscopy. TUNEL assay was performed using ApopTag plus fluorescein in situ apoptosis detection kit (Intergen Company S7111) as recommended.
Because recruitment of ILK to the focal adhesion complex is important for its activation, the inventors assayed the effects of thymosin β4 on ILK localization and expression. […] Because thymosin β4 sequesters the pool of G-actin monomers, the inventors asked whether the effects on ILK activation were dependent on the role of thymosin β4 in regulating the balance between polymerized F-actin and monomeric G-actin.

C3 transferase [reference compound]
effect on thymosin β4-induced ILK activation: neither intervention affected the ILK activation

Reference: patent publication US7531318B2, “Screening of agents for activity against ischemic myocardial insults” (priority 2004, dated 2009)
